{
  "source": "patent US20110028715A1",
  "about": "“NOVEL ADENINE COMPOUND” (priority 2007, published 2011)",
  "key": {"OV-HM ovarian carcinoma": {"system": "OV-HM ovarian carcinoma", "experiment": "Antitumor activity: lung metastasis in OV-HM ovarian carcinoma-bearing mouse", "type": "in vivo, B6C3F1 mouse", "settings": "Day 35", "protocol": "OV-HM ovarian carcinoma-bearing B6C3F1 mouse was prepared by intradermally inoculating 1×10^6 viable OV-HM cells in back skin. Tumor was surgically removed ten days after the tumor incubation under isoflurane anesthesia. On Day 11, Day 14, Day 17, Day 20, Day 24, Day 28, and Day 32, a test compound was administered via tail vein at the dose of 1 mg/kg. On Day 35, mouse was euthanized, and lung was collected from the mouse. Metastasized tumor nodules in lung was counted, and the frequency of the metastasized mice was calculated in each group."}, "IFN-α": {"system": "IFN-α", "experiment": "IFN-α production inducing activity in mice (plasma IFN-α by L929/2-5AS-Luc bioassay)", "type": "in vivo, B6C3F1 mice", "settings": "3 hours after 1 mg/kg intravenously via tail vein, mean ± standard deviation (n = 3)", "protocol": "A test compound was administered to B6C3F1 mice (Charles River Japan, Inc.) via tail vein at the dose of 1 mg/kg intravenously. After 3 hours, total blood was collected into a sample tube containing heparin. Plasma was prepared from total blood after centrifugation (3,000 rpm, 10 min, at room temperature) and stored at −20° C.\nMurine fibroblasts (L929/2-5AS-Luc), which constitutively expressed luciferase gene in which the promoter region for 2′-5′-oligoadenylate synthase was cloned, was seeded into 96-well plate at 4×10^4 cells/well, and cultured for overnight with diluted plasma or mouse IFN-α. After Luclite (Perkin Elmer) was added to the plate, the luciferase activity was measured with TopCount (Perkin Elmer).\nThe concentration of IFN-α in plasma was calculated by linear regression of logarithmic transformed concentration of mouse IFN-α and the luciferase activity."}},
  "data": [
    {"smiles": "CCOc1nc(N)c2[nH]c(=O)n(Cc3ccc(CN(C)C)cc3)c2n1", "note": "[Example 63, 6-Amino-9-(4-dimethylaminomethylbenzyl)-2-ethoxy-7,9-dihydropurin-8-one]", "values": [
      {"measurement": "Frequency of metastasis", "setting": "OV-HM ovarian carcinoma; metastasized mice per group, lung, 1 mg/kg via tail vein on Days 11, 14, 17, 20, 24, 28, 32", "result": "0/6"},
      {"measurement": "Number of tumor", "setting": "OV-HM ovarian carcinoma; metastasized tumor nodules in lung, 1 mg/kg via tail vein, **p < 0.01 vs vehicle group (Wilcoxon)", "result": "0.0**"},
      {"measurement": "Mouse IFN-α", "setting": "IFN-α", "result": "25.4 ± 13.9", "unit": "IU/mL"}
    ]}
  ]
}
